Assay results as given in patent US20230173064A1, “DETOXIFIED LIPOPOLYSACCHARIDES (LPS), NATURALLY NON-TOXIC LPS, AND USES THEREOF” (priority 2020, published 2023).
Where two headings read alike, the source gives them in different places.

Experiments:
[1] = test system: Osa tumor cells in Sprague-Dawley (SD) rats; assay: Tumor rejection assay, orthotopic rat model of osteosarcoma (Osa); format: in vivo
Procedure: The therapeutic efficacy of the modified LPS B2 1.3 was analyzed in vivo against an orthotopic rat model of osteosarcoma (Osa) using tumor rejection assays with a therapeutic setting.
Sprague-Dawley (SD) rats were engrafted with Osa tumor cells in a paratibial position (left posterior tibia) after a periosteal abrasion. When tumors reached an average tumor volume of 150 mm^3, rats (n=3 to 8/group) were randomized into LPS B2 1.3, Doxorubicin (Doxo), or PBS (Control) groups.
LPS B2 1.3 was administered intravenously into the tail vein, twice a week for 2 weeks at 0.25 mg/kg.
Doxorubicin was administered intraperitoneally twice a week for 2 weeks at 1 mg/kg.
Tumor growth and survival were monitored twice a week. Tumor volumes V were assessed according to the following formula: […]
with L the longest and C the shortest tumor diameter.

[2] = Dynamic Light Scattering (DLS) aggregate size analysis in water and PBS suspensions; format: physicochemical; conditions: for average particle size: 0.2 mg/mL, DLS at 25° C., average of triplicate
Procedure: Determination of aggregates sizes of LPS B2 0.0, LPS B2 0.1, LPS B2 1.1 and of synthetic GLA (PHAD®, from Avanti® Polar Lipids, Inc.) in aqueous and PBS suspensions was determined by Dynamic Light Scattering (DLS) using the Malvern Instruments Zetasizer Nano S90 with a scattering angle Θ=90°, incident laser wavelength λ=633 nm and temperature at 25° C.
Samples for measurements were prepared as follows: 200 μg of dry samples in 4 mL glass vials were suspended in 1 mL of water or PBS. LONZA LAL Reagent water and Gibco PBS pH 7.4 (without CaCl2 or MgCl2) were used. The solvents were added progressively (250 μL plus 250 μL plus 500 μL). Three homogenization cycles were applied after each addition of a solvent, consisting in a 10-second sonication in a Fisher Scientific FB 15050 ultrasonic bath and 5 seconds vigorous vortex agitation.
800 μL of each suspension were transferred to a disposable Eppendorf polystyrene semi-micro cuvette and DLS measurements were performed three times.
LPS SM1 V1 was diluted in PBS pH 7.5 at 50 nmol/mL, and filtered through a 200-nm filter to remove large debris and aggregates. No nucleic acid contaminants and 2-4 μg/mL of protein contaminants were measured in the sample.

rabbits [3] = assay: Rabbit Pyrogen Test (RPT), Ph. Eur. 5.1.10; format: in vivo; conditions: intravenous, sum of temperature rises of 3 rabbits not above 1.15° C.
Procedure: Standardized Rabbit Pyrogen Test (RPT) were conducted according to European Pharmacopeia (Ph. Eur. 5.1.10). Product tested includes the naturally-occurring LPS B2 0.0 and LPS W1 0.0 and modified LPS B2 0.1, LPS B2 1.1 and LPS B2 1.2, as well as a non-GMP equivalent of the GLA from Merck (Avanti Polar Lipids).
Briefly, groups of three rabbits, weighing 2.5 to 3 kg received one intravenous injection of the tested product in 1 mL/kg of body weight.
For each candidate, several dose ranges were tested from 0.1 to 1000 ng/kg. For each animal, the baseline rectal temperature was recorded. After 30 minutes, the rabbits were inoculated in the ear vein. Temperatures were recorded every 6.5 minutes for 3 hours. The rising temperature of the rabbit body temperature is that the highest body temperature measure within the 3 hours, minus the normal body temperature.
Several doses of each candidates were tested to define their MNPD corresponding to the highest dose of a given product that can be administered in rabbits without inducing febrile reaction.
The pyrogenic activity of modified LPS B2 1.2 and LPS B2 1.3 was evaluated in vivo using the rabbit pyrogen test (RPT), as described in section 5.1.10 of the European Pharmacopeia. Both LPS were administered at the same dose of 450 ng/kg. Two experiments were performed for each modified LPS, with 3 rabbits/experiment (A1, A2 and A3).

[4] = test system: human B-lymphoma tumor model (RL cells) in CB17-SCID mice; assay: Tumor rejection assay, therapeutic setting, human B-lymphoma RL cells engrafted in CB17-SCID mice; format: in vivo, mouse; conditions: for growth of established RL tumor cells: once a week for 3 weeks, LPS 0.5 mg/kg i.v., GLA 0.5 mg/kg, rituximab 30 mg/kg i.p., vs non-treated mice
Procedure: The therapeutic efficacy of native (LPS B2 0.0 and LPS W1 0.0) and modified (LPS B2 0.1 and LPS B2 1.1) LPS, alone or in combination with rituximab, was analyzed in vivo against a human B-lymphoma tumor model (RL cells) using tumor rejection assays with a therapeutic setting in mice.
Cohort of CB17-SCID mice were engrafted subcutaneously in the abdominal right flank with 5×10^6 human B-lymphoma cells (RL cells). When the tumor volume had reached 100 mm^3 (at day 20), mice were randomized (n=6 mice/group), and the first treatment was administered.
(§1) Mice were treated once a week for 3 weeks (at days 20, 27 and 34) with LPS B2 0.0, LPS B2 0.1, LPS B2 1.1 or LPS W1 0.0, used alone or in combination with rituximab (Genentech), an anti-human CD20 mAb.
(§2) Groups of mice treated with GLA (Merck/Immune Design Corp.) administered either intravenously or intraperitoneally at 0.5 mg/kg, alone or in combination with rituximab, were included for comparison.
(§3) LPS B2 0.0, LPS B2 0.1, LPS B2 1.1 or LPS W1 0.0 were administered intravenously at a dose of 0.5 mg/kg. Rituximab was administered intraperitoneally at a dose of 30 mg/kg.
Tumor-bearing mice injected with PBS (control) or rituximab alone were used as controls.
The tumor volume was measured twice a week (length x width) with a caliper. The tumor volume was determined using the formula: […]

CB17-SCID mice = assay: Tolerance of intravenous injection in tumor-bearing CB17-SCID mice; format: in vivo, mouse; conditions: 0.5 mg/kg intravenously
Procedure: as §1, §2, §3

human PBMC (CryoBlood) = conditions: literature / vendor values; cited from earlier work
rabbits [5] = conditions: literature values; cited from earlier work

## COc1cccc2c1C(=O)c1c(O)c3c(c(O)c1C2=O)C[C@@](O)(C(=O)CO)C[C@@H]3O[C@H]1C[C@H](N)[C@H](O)[C@H](C)O1 [doxorubicin]
[1]; LPS B2 1.3 0.25 mg/kg i.v., doxorubicin 1 mg/kg i.p., twice a week for 2 weeks, vs PBS (and doxorubicin)
  growth of established Osa tumor cells: No significant difference in tumor growth
[1]; day 31
  animals alive (survival): 40%
  complete tumor regressions (complete responses): no tumor regressions

## CCCCCCCCCCCCCC(=O)O[C@H](CCCCCCCCCCC)CC(=O)O[C@@H]1[C@@H](NC(=O)C[C@H](CCCCCCCCCCC)OC(=O)CCCCCCCCCCCCC)[C@H](OC[C@H]2O[C@H](O)[C@H](NC(=O)C[C@H](O)CCCCCCCCCCC)[C@@H](OC(=O)C[C@H](O)CCCCCCCCCCC)[C@@H]2O)O[C@H](CO)[C@H]1OP(=O)(O)O [GLA, glucopyranosyl lipid A]
[2]; in PBS
  average particle size: about 529 nm
[2]; in water
  DLS profile: monodisperse
  average particle size: about 544 nm
[2]; in water or PBS
  size of nano-particles / aggregates: > 500 nm
[2]; in water or PBS, without dispersing reagents or special treatment
  solubility / dispersibility: precipitates
[2]; in water or in PBS
  appearance of the final 0.2 mg/mL suspensions: slightly opaque but homogeneous
Rabbits [3]
  MNPD (maximum non-pyrogenic dose): 0.034 µg/kg
[4]; GLA 0.5 mg/kg injected intraperitoneally in combination with rituximab
  complete tumor regression: 50%
[4]; single agent
  growth of established RL tumor cells: did not show any impairment
CB17-SCID mice
  altered aspect and behavior (toxicity) after intravenous administration: had to be euthanized
Human PBMC (CryoBlood)
  MAT (pyrogenicity as described in the literature): 15700^2 EEU/μg

## CCCCCCCCCCC[C@H](CC(=O)N[C@H]1[C@H](OC[C@H](NC(=O)C[C@@H](CCCCCCCCCCC)OCCCCCCCCCC)C(=O)O)O[C@H](CO)[C@@H](OP(=O)(O)O)[C@@H]1OC(=O)C[C@@H](CCCCCCCCCCC)OCCCCCCCCCC)OCCCCCCCCCC [GSK1795-091]
Rabbits [5]
  MNPD (maximum non-pyrogenic dose): 0.0025 µg/kg

## rituximab: an anti-CD20 monoclonal antibody (Genentech)
[4]; single agent, D54 post-tumor challenge
  complete tumor regression: 17%
[4]; single agent
  growth of established RL tumor cells: significantly impair the growth
